Data taken from patent US10206394B2, “Herbicidal compounds” (Syngenta Participations AG, priority 2014, dated 2019).
Where two headings read alike, the source gives them in different places.

Assays:
Test in all cases: Glasshouse assay for herbicidal activity (pre- and post-emergence), percentage phytotoxicity
Type in all cases: in vivo
Avena fatua (AVEFA) = conditions: Avena fatua
Outline: (§1)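 Percent injury was estimated by eye on a scale where 0% means no damage and 100% complete damage. Ratings came 15 DAA post-emergence and 20 DAA pre-emergence, with plants held under 16 h light and 65% humidity at 24/18 °C or 20/16 °C day/night.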

[1] = system: Alopecurus myosuroides (ALOMY); conditions: Alopecurus myosuroides
Outline: as §1

Lolium perenne (LOLPE) = conditions: Lolium perenne
Outline: as §1

[2] = system: Echinochloa crus-galli (ECHCG); conditions: Echinochloa crus-galli
Outline: as §1

[3] = post-emergence, 360 h, 250 g/ha, post-emergence, 15 DAA, visual assessment (100%=total damage, 0%=no damage), read-out: Post-emergence herbicidal activity (percentage phytotoxicity) AVEFA POST
[4] = pre-emergence, 480 h, 250 g/ha, pre-emergence, 20 DAA, visual assessment (100%=total damage, 0%=no damage), read-out: Pre-emergence herbicidal activity (percentage phytotoxicity) AVEFA PRE
[5] = post-emergence, 360 h, 250 g/ha, post-emergence, 15 DAA, visual assessment (100%=total damage, 0%=no damage), read-out: Post-emergence herbicidal activity (percentage phytotoxicity) ALOMY POST
[6] = pre-emergence, 480 h, 250 g/ha, pre-emergence, 20 DAA, visual assessment (100%=total damage, 0%=no damage), read-out: Pre-emergence herbicidal activity (percentage phytotoxicity) ALOMY PRE
[7] = post-emergence, 360 h, 250 g/ha, post-emergence, 15 DAA, visual assessment (100%=total damage, 0%=no damage), read-out: Post-emergence herbicidal activity (percentage phytotoxicity) LOLPE POST
[8] = pre-emergence, 480 h, 250 g/ha, pre-emergence, 20 DAA, visual assessment (100%=total damage, 0%=no damage), read-out: Pre-emergence herbicidal activity (percentage phytotoxicity) LOLPE PRE
[9] = post-emergence, 360 h, 250 g/ha, post-emergence, 15 DAA, visual assessment (100%=total damage, 0%=no damage), read-out: Post-emergence herbicidal activity (percentage phytotoxicity) ECHCG POST
[10] = pre-emergence, 480 h, 250 g/ha, pre-emergence, 20 DAA, visual assessment (100%=total damage, 0%=no damage), read-out: Pre-emergence herbicidal activity (percentage phytotoxicity) ECHCG PRE
[11] = post-emergence, 360 h, Rate 250 g/ha, post-emergence, assessed visually 15 DAA, 100%=total damage, 0%=no damage, read-out: Post-emergence herbicidal activity (percentage phytotoxicity) AVEFA POST
[12] = pre-emergence, 480 h, Rate 250 g/ha, pre-emergence, assessed visually 20 DAA, 100%=total damage, 0%=no damage, read-out: Pre-emergence herbicidal activity (percentage phytotoxicity) AVEFA PRE
[13] = post-emergence, 360 h, Rate 250 g/ha, post-emergence, assessed visually 15 DAA, 100%=total damage, 0%=no damage, read-out: Post-emergence herbicidal activity (percentage phytotoxicity) ALOMY POST
[14] = pre-emergence, 480 h, Rate 250 g/ha, pre-emergence, assessed visually 20 DAA, 100%=total damage, 0%=no damage, read-out: Pre-emergence herbicidal activity (percentage phytotoxicity) ALOMY PRE
[15] = post-emergence, 360 h, Rate 250 g/ha, post-emergence, assessed visually 15 DAA, 100%=total damage, 0%=no damage, read-out: Post-emergence herbicidal activity (percentage phytotoxicity) LOLPE POST
[16] = pre-emergence, 480 h, Rate 250 g/ha, pre-emergence, assessed visually 20 DAA, 100%=total damage, 0%=no damage, read-out: Pre-emergence herbicidal activity (percentage phytotoxicity) LOLPE PRE
[17] = post-emergence, 360 h, Rate 250 g/ha, post-emergence, assessed visually 15 DAA, 100%=total damage, 0%=no damage, read-out: Post-emergence herbicidal activity (percentage phytotoxicity) ECHCG POST
[18] = pre-emergence, 480 h, Rate 250 g/ha, pre-emergence, assessed visually 20 DAA, 100%=total damage, 0%=no damage, read-out: Pre-emergence herbicidal activity (percentage phytotoxicity) ECHCG PRE

SMILES	pest or weed control at 250 g/ha (Avena fatua (AVEFA); [3]) [%]	pest or weed control at 250 g/ha (Avena fatua (AVEFA); [4]) [%]	pest or weed control at 250 g/ha [1, 5] [%]	pest or weed control at 250 g/ha [1, 6] [%]	pest or weed control at 250 g/ha (Lolium perenne (LOLPE); [7]) [%]	pest or weed control at 250 g/ha (Lolium perenne (LOLPE); [8]) [%]	pest or weed control at 250 g/ha [2, 9] [%]	pest or weed control at 250 g/ha [2, 10] [%]	pest or weed control at 250 g/ha (Avena fatua (AVEFA); [11]) [%]	pest or weed control at 250 g/ha (Avena fatua (AVEFA); [12]) [%]	pest or weed control at 250 g/ha [1, 13] [%]	pest or weed control at 250 g/ha [1, 14] [%]	pest or weed control at 250 g/ha (Lolium perenne (LOLPE); [15]) [%]	pest or weed control at 250 g/ha (Lolium perenne (LOLPE); [16]) [%]	pest or weed control at 250 g/ha [2, 17] [%]	pest or weed control at 250 g/ha [2, 18] [%]	further results
C#CCN(CC#C)C(=O)CC1CC(=O)C(c2c(C)cc(C)cc2C)C1=O (stereo not drawn) [Compound B45]	80	10	80	70	80	80	80	60									
Cc1cc(C)c(C2C(=O)CC(C(C)C(=O)NCc3cccc(C(F)(F)F)c3)C2=O)c(C)c1 (stereo not drawn) [Compound A166]									70	20	40	40	70	70	90	70	
Cc1cc(OCC(F)(F)F)cc(C)c1C1C(=O)CC(CC(=O)NC(C)(C)C)C1=O (stereo not drawn) [Compound B139]	90	50	90	60	80	90	100	100									
C/C=C/c1cc(C)c(C2C(=O)CC(CC(=O)NCc3cccc(F)c3)C2=O)c(CC)c1 (stereo not drawn) [Compound B188]																	pest or weed control at 250 g/ha (Avena fatua (AVEFA); post-emergence, 360 h, POST-emergence, rate 250 g/ha, visual score 15 DAA (100%=total damage, 0%=no damage), read-out: Post-emergence herbicidal activity (percentage phytotoxicity) AVEFA POST): 100%; pest or weed control at 250 g/ha (Avena fatua (AVEFA); pre-emergence, 480 h, PRE-emergence, rate 250 g/ha, visual score 20 DAA (100%=total damage, 0%=no damage), read-out: Pre-emergence herbicidal activity (percentage phytotoxicity) AVEFA PRE): 40%; pest or weed control at 250 g/ha ([1]; post-emergence, 360 h, POST-emergence, rate 250 g/ha, visual score 15 DAA (100%=total damage, 0%=no damage), read-out: Post-emergence herbicidal activity (percentage phytotoxicity) ALOMY POST): 80%; pest or weed control at 250 g/ha ([1]; pre-emergence, 480 h, PRE-emergence, rate 250 g/ha, visual score 20 DAA (100%=total damage, 0%=no damage), read-out: Pre-emergence herbicidal activity (percentage phytotoxicity) ALOMY PRE): 60%; pest or weed control at 250 g/ha (Lolium perenne (LOLPE); post-emergence, 360 h, POST-emergence, rate 250 g/ha, visual score 15 DAA (100%=total damage, 0%=no damage), read-out: Post-emergence herbicidal activity (percentage phytotoxicity) LOLPE POST): 90%; pest or weed control at 250 g/ha (Lolium perenne (LOLPE); pre-emergence, 480 h, PRE-emergence, rate 250 g/ha, visual score 20 DAA (100%=total damage, 0%=no damage), read-out: Pre-emergence herbicidal activity (percentage phytotoxicity) LOLPE PRE): 80%; pest or weed control at 250 g/ha ([2]; post-emergence, 360 h, POST-emergence, rate 250 g/ha, visual score 15 DAA (100%=total damage, 0%=no damage), read-out: Post-emergence herbicidal activity (percentage phytotoxicity) ECHCG POST): 100%; pest or weed control at 250 g/ha ([2]; pre-emergence, 480 h, PRE-emergence, rate 250 g/ha, visual score 20 DAA (100%=total damage, 0%=no damage), read-out: Pre-emergence herbicidal activity (percentage phytotoxicity) ECHCG PRE): 80%
COCC#CC(C)(C)NC(=O)CC1CC(=O)C(c2c(C)cc(C)cc2C)C1=O (stereo not drawn) [Compound A104]									70	0	90	90	60	80	70	80	
COCC(C)(C)NC(=O)CC1CC(=O)C(c2c(C)cc(-c3ncc(Cl)cn3)cc2C)C1=O (stereo not drawn) [Compound B344]																	pest or weed control at 250 g/ha (Avena fatua (AVEFA); post-emergence, 360 h, Rate 250 g/ha, post-emergence, visual assessment 15 DAA, 100%=total damage, 0%=no damage, read-out: Post-emergence herbicidal activity (percentage phytotoxicity) AVEFA POST): 100%; pest or weed control at 250 g/ha (Avena fatua (AVEFA); pre-emergence, 480 h, Rate 250 g/ha, pre-emergence, visual assessment 20 DAA, 100%=total damage, 0%=no damage, read-out: Pre-emergence herbicidal activity (percentage phytotoxicity) AVEFA PRE): 80%; pest or weed control at 250 g/ha ([1]; post-emergence, 360 h, Rate 250 g/ha, post-emergence, visual assessment 15 DAA, 100%=total damage, 0%=no damage, read-out: Post-emergence herbicidal activity (percentage phytotoxicity) ALOMY POST): 100%; pest or weed control at 250 g/ha ([1]; pre-emergence, 480 h, Rate 250 g/ha, pre-emergence, visual assessment 20 DAA, 100%=total damage, 0%=no damage, read-out: Pre-emergence herbicidal activity (percentage phytotoxicity) ALOMY PRE): 90%; pest or weed control at 250 g/ha (Lolium perenne (LOLPE); post-emergence, 360 h, Rate 250 g/ha, post-emergence, visual assessment 15 DAA, 100%=total damage, 0%=no damage, read-out: Post-emergence herbicidal activity (percentage phytotoxicity) LOLPE POST): 90%; pest or weed control at 250 g/ha (Lolium perenne (LOLPE); pre-emergence, 480 h, Rate 250 g/ha, pre-emergence, visual assessment 20 DAA, 100%=total damage, 0%=no damage, read-out: Pre-emergence herbicidal activity (percentage phytotoxicity) LOLPE PRE): 80%; pest or weed control at 250 g/ha ([2]; post-emergence, 360 h, Rate 250 g/ha, post-emergence, visual assessment 15 DAA, 100%=total damage, 0%=no damage, read-out: Post-emergence herbicidal activity (percentage phytotoxicity) ECHCG POST): 100%; pest or weed control at 250 g/ha ([2]; pre-emergence, 480 h, Rate 250 g/ha, pre-emergence, visual assessment 20 DAA, 100%=total damage, 0%=no damage, read-out: Pre-emergence herbicidal activity (percentage phytotoxicity) ECHCG PRE): 100%
